Drawing on ChEMBL document CHEMBL5357054, “Expanding the Chemical Diversity of Grisechelins via Heterologous Expression” (2024), this text covers Activity and MIC for 10 compounds.

≈ marks a conversion by molar mass, not a printed value. Calls of active or inactive are those of the source. No cut-off for these calls is given here.

One test concerns Staphylococcus aureus. Briefly: Antibacterial activity against methicillin resistant Staphylococcus aureus ATCC 43300 incubated for 24 hrs by broth microdilution method. It is filed as functional, organism-based. In general terms: In broth dilution the organism is exposed to a series of concentrations in liquid medium.
The next test deals with Acinetobacter baumannii. As to the kind of experiment: Antibacterial activity against Acinetobacter baumannii ATCC 19606 incubated for 24 hrs by broth microdilution method. It is filed as functional, organism-based.
Test [1] deals with Mycobacterium tuberculosis. Briefly: Antibacterial activity against autoluminescent Mycobacterium tuberculosis H37Ra by 7H9 broth based assay. It is filed as functional.

Turning to `O=C(O)c1nc2ccc(Cl)cc2cc1O`, the outcome (with Staphylococcus aureus; in the test with Acinetobacter baumannii; in test [1]) was inactive.

With `NC(=O)c1nc2ccc(Cl)cc2c(Cl)c1O`, the outcome (in the test with Staphylococcus aureus; with Acinetobacter baumannii; in test [1]) was inactive.

On to `O=C(OCc1csc(-c2nc3ccc(Cl)cc3c(Cl)c2O)n1)c1ccccc1O`, for which the result (in the test on Staphylococcus aureus; with Acinetobacter baumannii; in test [1]) was inactive.

On to `NC(=O)[C@@H]1CSC(c2csc(-c3nc4ccc(Cl)cc4cc3O)n2)=N1`, for which the outcome (in the test with Staphylococcus aureus; in the test on Acinetobacter baumannii; in test [1]) was inactive.

`OCc1csc(-c2nc3ccccc3cc2O)n1`: the result (in the test with Staphylococcus aureus; in the test on Acinetobacter baumannii; in test [1]) was inactive.

On to `CC(=O)/C=C/c1csc(-c2nc3ccc(Cl)cc3c(Cl)c2O)n1`, for which the outcome (in the test on Staphylococcus aureus; in the test on Acinetobacter baumannii; in test [1]) was inactive.

`OCc1csc(-c2nc3ccccc3c(Cl)c2O)n1`: the result (in the test on Staphylococcus aureus; in the test on Acinetobacter baumannii; in test [1]) was inactive.

Regarding `NC(=O)c1csc(-c2csc(-c3nc4ccccc4c(Cl)c3O)n2)n1`, the outcome (with Staphylococcus aureus; with Acinetobacter baumannii; in test [1]) was inactive.

Turning to `NC(=O)[C@@H]1CSC(c2csc(-c3nc4ccccc4cc3O)n2)=N1`, the outcome (in the test on Staphylococcus aureus; in the test on Acinetobacter baumannii; in test [1]) was inactive.

In general, MIC refers to the lowest concentration that inhibits growth of the organism. Low values mean inhibition by little substance, high ones a need for much substance. On to `OCc1csc(-c2nc3ccc(Cl)cc3c(Cl)c2O)n1`, for which inhibition of growth in test [1] (MIC) required 8 µg/mL (≈ 24.5 µM).
